# Laboratory results from US20160175229A1, “MICROPARTICLES WITH CYCLODEXTRINS HAVING A DUAL LEVEL OF ENCAPSULATION” (LCA DERMATECH, priority 2013, published 2016).
# Experiment: In vitro dermal absorption of hesperidin on Franz cells with skin explants (1st experimental part)
# Assay type: in vitro ADME
# Settings: hesperidin 0.5 weight % of sample
# Source text: The diffusion of a first active ingredient, hesperidin, in the different layers of the skin has been assessed based on the manner by which it has been applied on the skin, namely: • 1) in the case where the hesperidin has been encapsulated in microparticles according to the invention, and following Example 1 which has been detailed above, • 2) in the case where the hesperidin has been encapsulated in microparticles of polymers, • 3) in the case where the hesperidin has been provided in a free form, • 4) in the case where the hesperidin has been provided in the form of an inclusion complex with a cyclodextrin.
# These 4 preparations have constituted 4 samples of cutaneous application of hesperidin. Hesperidin represented 0.5 weight % of the mass of each of these 4 samples.
# Tests on these 4 samples have been carried out in accordance with the Directives: SCCS/1358/10 on date of Jun. 22, 2010 <<Basic criteria for the in vitro assessment of dermal absorption of cosmetic ingredient>>, OECD 28 of 2004. OECD being the abbreviation of <<Organization for Economic Co-operation and Development>> and SCCS being the abbreviation of <<Scientific Committee on Consumer Safety>>.
# The material that has been used consisted of Franz cells. Skin explants, with an average surface area of 2.54 cm^2 and with a thickness comprised between 1.1 and 1.35 mm, have been used. […]
compound,measurement,value
"COc1ccc([C@@H]2CC(=O)c3c(O)cc(O[C@@H]4O[C@H](CO[C@@H]5O[C@@H](C)[C@H](O)[C@@H](O)[C@H]5O)[C@@H](O)[C@H](O)[C@H]4O)cc3O2)cc1O [hesperidin in a free form, hesperidin]",amount of hesperidin cumulated in the dermis during 24 hours,1.98 μg/cm^2
